This is an account of results in US8921577B2, “Cholecystokinin receptor ligands” (PNB Vesper Life Sciences Pvt. Ltd., priority 2012, dated 2014).

The target in one data set is T1, CCKB receptor (Cavia porcellus, UniProt H0VZC5).
T1 construct: Male guinea pig brain tissues were prepared according to the modified method described by Saita et al; from tissue; host or cells: male guinea pig cerebral cortex membranes
T1 sequence (H0VZC5 1-426): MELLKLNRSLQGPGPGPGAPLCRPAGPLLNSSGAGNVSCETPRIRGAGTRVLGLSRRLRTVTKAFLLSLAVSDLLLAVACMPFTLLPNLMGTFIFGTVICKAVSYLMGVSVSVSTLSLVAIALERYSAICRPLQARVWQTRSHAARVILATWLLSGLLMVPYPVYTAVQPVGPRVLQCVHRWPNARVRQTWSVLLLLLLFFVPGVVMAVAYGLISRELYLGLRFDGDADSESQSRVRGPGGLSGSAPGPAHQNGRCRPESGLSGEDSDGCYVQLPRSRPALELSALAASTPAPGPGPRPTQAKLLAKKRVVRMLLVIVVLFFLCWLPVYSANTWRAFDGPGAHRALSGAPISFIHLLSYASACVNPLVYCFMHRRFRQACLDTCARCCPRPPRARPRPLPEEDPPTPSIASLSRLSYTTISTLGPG
As to the kind of experiment: [125]I-CCK-8 receptor binding assay, CCKB (guinea pig cerebral cortex membranes). The following applies: for IC50: guinea pig cerebral cortex membranes, 125I-Bolton-Hunter labeled CCK 25 pM, pH 6.5, 2 hrs at RT, read-out: Binding affinity Activity CCK-B. As for the experimental part:
(§1) CCKA and CCKB receptor binding assays were performed using guinea pig cerebral cortex (CCKB) and rat pancreas (CCKA). Male guinea pig brain tissues were prepared according to the modified method described by Saita et al, [(1994), Eur. J. Pharmacol., 269, 249-254]. Pancreatic membranes were prepared in a similar way described by Charpentier et al, [(1988), Proc Natl Acad Sci USA, 85, 1968-1972]. Briefly, tissues were homogenized in ice cold sucrose (0.32 M, 25 ml) for 15 strokes at 500 rpm and centrifuged at 13000 rpm for 10 mins. The supernatant was re-centrifuged at 13000 rpm for 20 mins. The resulting pellet was re-dispersed to the required volume of buffer at 500 rpm and stored in aliquots at −70° C.
(§2) Binding was achieved using a radioligand ^125I-Bolton-Hunter labeled CCK, NEN at 25 pM. The samples were incubated {with membranes (0.1 mg/ml)} in 20 mM Hepes, 1 mM EGTA, 5 mM MgCl2, 150 mm NaCl, 0.25 mg/ml bacitracin at pH 6.5 for 2 hrs at RT and then […] by centrifugation at 1100 rpm for 5 minutes. The membrane pellets were washed twice with water and the bound radioactivity was measured in a Packard Cobra Auto-gamma counter (B5005). All binding assays were carried out with L-363, 260 as an internal non-specific standard. Controls (no compound) were also added. All samples were made in duplicate and repeated twice. All compounds were initially screened for percentage inhibition at 10 μm. Samples showing an average inhibition of >35% were diluted to 1 μm and re-screened and if active diluted again.

The next data set has as its target T2, CCKA receptor (Rattus norvegicus, UniProt P30551).
T2 construct: Pancreatic membranes were prepared in a similar way described by Charpentier et al; from tissue; host or cells: rat pancreas membranes
T2 sequence (P30551 1-444): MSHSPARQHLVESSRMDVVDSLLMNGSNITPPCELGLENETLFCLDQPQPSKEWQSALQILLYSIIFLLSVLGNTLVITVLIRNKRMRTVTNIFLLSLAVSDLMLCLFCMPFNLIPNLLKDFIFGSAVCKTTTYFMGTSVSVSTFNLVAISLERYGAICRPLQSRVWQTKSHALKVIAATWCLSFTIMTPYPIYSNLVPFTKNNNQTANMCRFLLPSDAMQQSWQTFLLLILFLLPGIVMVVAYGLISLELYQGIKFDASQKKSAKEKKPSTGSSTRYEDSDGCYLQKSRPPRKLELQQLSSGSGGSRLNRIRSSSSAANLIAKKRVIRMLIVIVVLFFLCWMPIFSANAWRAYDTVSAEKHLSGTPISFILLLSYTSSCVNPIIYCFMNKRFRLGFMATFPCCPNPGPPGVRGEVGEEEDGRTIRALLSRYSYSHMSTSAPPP
The data set can be described thus: [125]I-CCK-8 receptor binding assay, CCKA (rat pancreas membranes). Conditions: for IC50: rat pancreas membranes, 125I-Bolton-Hunter labeled CCK 25 pM, pH 6.5, 2 hrs at RT, read-out: Binding affinity Activity CCK-A. The procedure:
as §1, §2

The structures appear in SMILES notation.

`O=C1C=C(Cl)C(O)(c2ccc(Cl)cc2)N1Cc1ccccc1` (stereo not drawn) [Example 19, 1-Benzyl-4-chloro-5-(4-chloro-phenyl)-5-hydroxy-1,5-dihydro-pyrrol-2-one] showed a melting point of 149 to 152 °C. Besides, the IC50 at CCKB receptor was above 10 µM. Besides, on CCKA receptor, the IC50 came to 2.2 µM.

Regarding `CN1C(=O)C=C(Cl)C1(O)c1ccccc1` (stereo not drawn) [Example 4, 4-Chloro-5-hydroxy-1-methyl-5-phenyl-1,5-dihydro-pyrrol-2-one], the IC50 at CCKB receptor and at CCKA receptor was above 10 µM in each case.

Turning to `O=C1C=C(Cl)C(O)(c2ccccc2)N1Cc1ccccc1` (stereo not drawn) [Example 9, 1-Benzyl-4-chloro-5-hydroxy-5-phenyl-1,5-dihydro-pyrrol-2-one], the IC50 at CCKB receptor and on CCKA receptor was above 10 µM in each case.

In turn, `C[C@H](c1ccccc1)N1C(=O)C=C(Cl)C1(O)c1ccccc1` (single isomer, unassigned) [Example 10a] showed a melting point of 162 to 164 °C. Besides, the IC50 on CCKB receptor is above 10 µM. Further, on CCKA receptor, the IC50 is above 10 µM.

As for `CN1C(=O)C=C(Cl)C1(O)c1ccc(Cl)cc1` (stereo not drawn) [Example 14, 4-Chloro-5-(4-chloro-phenyl)-5-hydroxy-1-methyl-1,5-dihydro-pyrrol-2-one], the IC50 at CCKB receptor and on CCKA receptor was above 10 µM in each case.

As to `O=C1C=C(Cl)C(O)(c2ccccc2)N1C1CC1` (stereo not drawn) [Example 1, 4-Chloro-1-cyclopropyl-5-hydroxy-5-phenyl-1,5-dihydro-pyrrol-2-one], the figures for the IC50 on CCKB receptor and on CCKA receptor were above 10 µM and 2.5 µM, respectively.

With `C[C@H](c1ccccc1)N1C(=O)C=C(Cl)C1(O)c1ccccc1` (single isomer, unassigned) [Example 10b], the IC50 on CCKB receptor and at CCKA receptor was above 10 µM each time.

As for `O=C1C=C(Cl)C(O)(c2ccc(Cl)cc2)N1C1CC1` (stereo not drawn) [Example 12, 4-Chloro-5-(4-chloro-phenyl)-1-cyclopropyl-5-hydroxy-1,5-dihydro-pyrrol-2-one], the figures for the IC50 at CCKB receptor and at CCKA receptor were above 10 µM and 7.5 µM, respectively.

For `O=C1C=C(Cl)C(O)(c2ccc(Cl)cc2)N1CCc1ccccc1` (stereo not drawn) [Example 15, 4-Chloro-5-(4-chloro-phenyl)-5-hydroxy-1-phenethyl-1,5-dihydro-pyrrol-2-one], the melting point fell in the range of 145 to 148 °C. Further, the IC50 at CCKB receptor came to 0.0015 µM. Moreover, the IC50 at CCKA receptor is 0.002 µM.

For `CCCCCCN1C(=O)C=C(Cl)C1(O)c1ccccc1` (stereo not drawn) [Example 6, 4-Chloro-1-hexyl-5-hydroxy-5-phenyl-1,5-dihydro-pyrrol-2-one], the IC50 on CCKB receptor and at CCKA receptor was above 10 µM in each case.

For the compound `CCCCCCN1C(=O)C=C(Cl)C1(O)c1ccc(Cl)cc1` (stereo not drawn) [Example 16, 4-Chloro-5-(4-chloro-phenyl)-1-hexyl-5-hydroxy-1,5-dihydro-pyrrol-2-one], the IC50 on CCKB receptor and on CCKA receptor was above 10 µM throughout.

`O=C1C=C(Cl)C(O)(c2ccc(Cl)cc2)N1C1CCCC1` (stereo not drawn) [Example 17, 4-Chloro-5-(4-chloro-phenyl)-1-cyclopentyl-5-hydroxy-1,5-dihydro-pyrrol-2-one]: the IC50 is above 10 µM on CCKB receptor and 2.5 µM on CCKA receptor.

With `O=C1C=C(Cl)C(O)(c2ccccc2)N1CCc1ccccc1` (stereo not drawn) [Example 5, 4-Chloro-5-hydroxy-1-phenethyl-5-phenyl-1,5-dihydro-pyrrol-2-one], the melting point lay within 155 to 158 °C. Besides, at CCKB receptor, the IC50 was 0.02 µM. For the same compound, the “CCK antagonist character (in words)” value on CCKA receptor (judgement in words on CCK-A and CCK-B binding) is “potent and mixed CCK antagonist”. Moreover, on CCKA receptor, the IC50 came out at 0.02 µM.

Turning to `CC(C)CN1C(=O)C=C(Cl)C1(O)c1ccccc1` (stereo not drawn) [Example 8, 4-Chloro-5-hydroxy-1-isobutyl-5-phenyl-1,5-dihydro-pyrrol-2-one], the figures for the IC50 on CCKB receptor and on CCKA receptor were 0.01 µM and 4.5 µM, respectively. The “affinity towards the CCK B receptor (in words)” value on CCKB receptor (judgement in words) was “good affinity”.

As for `CC(C)N1C(=O)C=C(Cl)C1(O)c1ccccc1` (stereo not drawn) [Example 3, 4-Chloro-5-hydroxy-1-isopropyl-5-phenyl-1,5-dihydro-pyrrol-2-one], the IC50 at CCKB receptor and on CCKA receptor was above 10 µM throughout.

Turning to `CC(C)N1C(=O)C=C(Cl)C1(O)c1ccc(Cl)cc1` (stereo not drawn) [Example 13, 4-Chloro-5-(4-chloro-phenyl)-5-hydroxy-1-isopropyl-1,5-dihydro-pyrrol-2-one], the IC50 at CCKB receptor and on CCKA receptor was above 10 µM in each case.

`Cc1ccc(N2C(=O)C=C(Cl)C2(O)c2ccccc2)cc1C` (stereo not drawn) [Example 2, 4-Chloro-1-(3,4-dimethyl-phenyl)-5-hydroxy-5-phenyl-1,5-dihydro-pyrrol-2-one] had a melting point of 168 to 171 °C. For the same compound, the IC50 on CCKB receptor is above 10 µM. The IC50 at CCKA receptor was 2 µM.

As for `O=C1C=C(Cl)C(O)(c2ccccc2)N1C1CCCCC1` (stereo not drawn) [Example 11, 4-Chloro-1-cyclohexyl-5-hydroxy-5-phenyl-1,5-dihydro-pyrrol-2-one], the IC50 at CCKB receptor and on CCKA receptor was above 10 µM each time.

`O=C1C=C(Cl)C(O)(c2ccccc2)N1C1CCCC1` (stereo not drawn) [Example 7, 4-Chloro-1-cyclopentyl-5-hydroxy-5-phenyl-1,5-dihydro-pyrrol-2-one]: the IC50 at CCKB receptor was 0.84 µM; on CCKA receptor, 0.36 µM.

The melting point is the temperature of the solid-liquid transition.
